From PubChem BioAssay (NCI) come the findings set out here.

Among the test systems are UACC-257 melanoma; CAKI-1 renal; OVCAR-5 ovarian; HCC-2998 colon; SNB-19 CNS; OVCAR-8 ovarian; A549 NSCLC; ACHN renal.
Holding throughout (assay): NCI anticancer screen, dose series, 48 h

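Where inhibition never reached the appropriate level, the endpoint shown equals the highest concentration tested. Otherwise, values were interpolated linearly from a five-concentration, 48-hour dose response in 96-well plates. GI50: concentration for 50% inhibition of growth. TGI is the concentration that stops growth completely.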 Bounds are passed on as bounds.

Consider `COc1cc2c(cc1OC)C(CC1(O)CCCCC1)N(S(=O)(=O)c1ccc(C)cc1)CC2` (centres undefined), for which the GI50 in the experiment on UACC-257 melanoma, with CAKI-1 renal, in the experiment on OVCAR-5 ovarian, in the experiment on HCC-2998 colon, with SNB-19 CNS and in the experiment on OVCAR-8 ovarian was > 10 µM in each case. The GI50 in the experiment on A549 NSCLC and in the experiment with ACHN renal was > 10 µM each time. Moreover, the TGI with UACC-257 melanoma, in the experiment with CAKI-1 renal, in the experiment on OVCAR-5 ovarian, with HCC-2998 colon, in the experiment on SNB-19 CNS and with OVCAR-8 ovarian was > 10 µM throughout. The TGI in the experiment with A549 NSCLC and in the experiment on ACHN renal was > 10 µM throughout.
For the molecule `Oc1ccc2ccccc2c1C1NN=C(c2ccccc2)S1` (centres undefined), the GI50 in the experiment on UACC-257 melanoma was 0.561 µM; with CAKI-1 renal it was 0.339 µM; in the experiment with OVCAR-5 ovarian, 1.95 µM; with HCC-2998 colon it was 0.353 µM; in the experiment on SNB-19 CNS, 0.683 µM; in the experiment on OVCAR-8 ovarian, 0.439 µM. For the same molecule, the GI50 in the experiment with A549 NSCLC is 0.587 µM; in the experiment with ACHN renal, 0.343 µM. Also, the TGI in the experiment with UACC-257 melanoma was 12 µM; with CAKI-1 renal, 17.8 µM; in the experiment with OVCAR-5 ovarian it was > 77.5 µM; with HCC-2998 colon, 16.6 µM; in the experiment with SNB-19 CNS, > 100 µM; in the experiment on OVCAR-8 ovarian, > 100 µM. Besides, the TGI is 84.1 µM with A549 NSCLC and > 40 µM in the experiment on ACHN renal.
For the molecule `C[C@@H](NC(=O)[C@@H](CC(=O)N1CCC(N2CCCCC2)CC1)N1C(=O)[C@@H](N2C(=O)OC[C@@H]2c2ccccc2)[C@H]1/C=C/c1cccc(Cl)c1)c1ccccc1`, the GI50 was 1.93 µM in the experiment with UACC-257 melanoma; 1.89 µM with CAKI-1 renal; 5.78 µM with OVCAR-5 ovarian; 1.99 µM in the experiment on HCC-2998 colon; 2.77 µM with SNB-19 CNS; 4.3 µM with OVCAR-8 ovarian. Besides, the GI50 in the experiment with A549 NSCLC was 4.34 µM; in the experiment on ACHN renal, 2.31 µM. In addition, the TGI with UACC-257 melanoma worked out at 3.84 µM; with CAKI-1 renal, 4.17 µM; with OVCAR-5 ovarian, 20.9 µM; in the experiment on HCC-2998 colon, 4.08 µM; in the experiment with SNB-19 CNS it was 7.57 µM; in the experiment on OVCAR-8 ovarian, 16.6 µM. The values for the TGI with A549 NSCLC and in the experiment on ACHN renal were 15.6 µM and 6.22 µM, respectively.
In the case of `Fc1cccc(CSc2ncnc3c2ncn3C2CCCS2)c1` (centres undefined), the TGI with UACC-257 melanoma was 29.6 µM; in the experiment with CAKI-1 renal it was > 100 µM; with OVCAR-5 ovarian it was > 100 µM; in the experiment with HCC-2998 colon, 42.2 µM; with SNB-19 CNS it was > 100 µM; in the experiment on OVCAR-8 ovarian it was 75.7 µM. The TGI in the experiment on A549 NSCLC was > 100 µM; in the experiment with ACHN renal, 39.7 µM.
Consider `Cc1ccc(C(=O)/C(=C\c2ccc([N+](=O)[O-])cc2)S(=O)Cc2ccc(F)cc2)cc1` (centres undefined), for which the GI50 in the experiment on UACC-257 melanoma is 1.93 µM; in the experiment with CAKI-1 renal it was 1.77 µM; with OVCAR-5 ovarian, 1.96 µM; with HCC-2998 colon, 1.77 µM; with SNB-19 CNS it was 1.75 µM; with OVCAR-8 ovarian, 1.88 µM. Besides, the GI50 with A549 NSCLC is 2.86 µM; in the experiment with ACHN renal, 1.86 µM. The TGI with UACC-257 melanoma is 3.69 µM; in the experiment on CAKI-1 renal, 3.84 µM; in the experiment with OVCAR-5 ovarian it was 3.93 µM; in the experiment on HCC-2998 colon it was 3.24 µM; in the experiment on SNB-19 CNS, 3.33 µM; in the experiment with OVCAR-8 ovarian, 4.08 µM. The TGI in the experiment with A549 NSCLC amounted to 8.8 µM; in the experiment on ACHN renal, 3.6 µM.
Consider `Cc1cc([N+](=O)[O-])ccc1NS(=O)(=O)c1cc(Cl)ccc1Cl`, for which the GI50 was 2.02 µM with UACC-257 melanoma; 2.54 µM with CAKI-1 renal; 5.1 µM in the experiment with OVCAR-5 ovarian; 4.28 µM in the experiment with HCC-2998 colon; 3.4 µM in the experiment on SNB-19 CNS; 3.65 µM in the experiment with OVCAR-8 ovarian. In addition, the GI50 was 2.91 µM in the experiment with A549 NSCLC and 3.18 µM with ACHN renal. Further, the TGI in the experiment with UACC-257 melanoma is 7.55 µM; with CAKI-1 renal, > 28.4 µM; with OVCAR-5 ovarian, > 100 µM; in the experiment with HCC-2998 colon it was 18 µM; in the experiment with SNB-19 CNS, > 100 µM; with OVCAR-8 ovarian, > 100 µM. The TGI was > 51 µM in the experiment on A549 NSCLC and > 100 µM in the experiment with ACHN renal.
Take `O=C1c2cc(-c3ccccc3)ccc2-c2c1c1ccc([N+](=O)[O-])cc1c(=O)n2CCCBr`: the GI50 was > 50 µM in the experiment on UACC-257 melanoma; > 50 µM in the experiment on CAKI-1 renal; > 50 µM in the experiment with OVCAR-5 ovarian; > 50 µM in the experiment with HCC-2998 colon; > 36.8 µM in the experiment with SNB-19 CNS; > 50 µM with OVCAR-8 ovarian. The GI50 is > 50 µM in the experiment on A549 NSCLC and > 36.3 µM with ACHN renal. The TGI in the experiment on UACC-257 melanoma, in the experiment with CAKI-1 renal, in the experiment with OVCAR-5 ovarian, in the experiment with HCC-2998 colon, in the experiment on SNB-19 CNS and in the experiment with OVCAR-8 ovarian was > 50 µM throughout. Moreover, the TGI with A549 NSCLC and in the experiment with ACHN renal was > 50 µM in each case.
`CSc1n(Cc2ccc3ccccc3c2)c(C)c[n+]1Cc1ccc2ccccc2c1`: the GI50 was 0.325 µM in the experiment on UACC-257 melanoma; 1.49 µM with CAKI-1 renal; 1.2 µM in the experiment with OVCAR-5 ovarian; 0.535 µM in the experiment with HCC-2998 colon; 0.51 µM in the experiment with SNB-19 CNS; 0.417 µM in the experiment on OVCAR-8 ovarian. Moreover, the results for the GI50 in the experiment with A549 NSCLC and in the experiment with ACHN renal were 1.28 µM and 1.9 µM, respectively. The TGI with UACC-257 melanoma came out at 1.12 µM; in the experiment with CAKI-1 renal, 2.97 µM; with OVCAR-5 ovarian, 2.53 µM; with HCC-2998 colon, 1.82 µM; in the experiment with SNB-19 CNS, 1.72 µM; in the experiment on OVCAR-8 ovarian, 1.6 µM. The TGI with A549 NSCLC was determined as 2.73 µM; in the experiment on ACHN renal it was 3.77 µM.
For `Clc1ccc(C(c2ccc(Cl)cc2)N2CCNCC2)cc1`, the TGI in the experiment on UACC-257 melanoma amounted to 4.62 µM; in the experiment on CAKI-1 renal, 17.4 µM; with OVCAR-5 ovarian, 18.3 µM; in the experiment on HCC-2998 colon, 3.05 µM; in the experiment on SNB-19 CNS, 21.3 µM; in the experiment with OVCAR-8 ovarian, 3.28 µM. In addition, the TGI is 8.4 µM with A549 NSCLC and 5.74 µM in the experiment with ACHN renal.
For the molecule `COc1cc2c(cc1OC)-c1ccc3cc4c(cc3c1N(CCN(C)C)C2)OCO4`, the GI50 in the experiment on UACC-257 melanoma was 2.43 µM; with CAKI-1 renal it was 0.596 µM; in the experiment with OVCAR-5 ovarian, 1.53 µM; in the experiment with HCC-2998 colon it was 1.29 µM; with SNB-19 CNS, 0.4 µM; in the experiment on OVCAR-8 ovarian, 0.51 µM. Moreover, the GI50 in the experiment on A549 NSCLC was 0.694 µM; in the experiment with ACHN renal, 0.588 µM. The TGI came to 16.5 µM with UACC-257 melanoma; 11.4 µM in the experiment with CAKI-1 renal; 5.23 µM in the experiment with OVCAR-5 ovarian; 2.87 µM in the experiment with HCC-2998 colon; 11.9 µM in the experiment with SNB-19 CNS; 3.44 µM with OVCAR-8 ovarian. The results for the TGI with A549 NSCLC and in the experiment with ACHN renal were 2.13 µM and 3.1 µM, respectively.
